Data on 57 molecules can be found in patent publication US20230119479A1, “A HISTONE DEACETYLASE INHIBITOR HAVING A NITROGEN-CONTAINING AROMATIC HETEROCYCLYL GROUP” (SHIONOGI & CO., LTD., priority 2019, published 2023).

The IC50 is the point on the concentration scale where inhibition reaches its midpoint.

Molecules are shown by their SMILES.

T1 sequence (Q92769 whole entry): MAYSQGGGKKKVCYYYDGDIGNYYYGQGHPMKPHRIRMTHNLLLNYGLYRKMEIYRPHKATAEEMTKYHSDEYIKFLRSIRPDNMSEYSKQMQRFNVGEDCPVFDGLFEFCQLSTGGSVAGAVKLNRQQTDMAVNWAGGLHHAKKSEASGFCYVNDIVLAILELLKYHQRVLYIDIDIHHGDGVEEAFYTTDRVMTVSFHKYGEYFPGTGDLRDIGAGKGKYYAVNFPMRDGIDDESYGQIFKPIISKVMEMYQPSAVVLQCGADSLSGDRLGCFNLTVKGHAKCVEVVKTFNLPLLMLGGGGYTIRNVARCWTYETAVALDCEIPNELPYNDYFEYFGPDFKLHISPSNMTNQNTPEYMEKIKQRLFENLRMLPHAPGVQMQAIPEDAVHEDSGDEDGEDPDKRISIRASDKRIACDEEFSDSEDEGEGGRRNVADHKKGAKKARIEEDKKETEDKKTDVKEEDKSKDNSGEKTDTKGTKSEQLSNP

One assay concerns the target T1, HDAC2 Human recombinant C-terminal FLAG-tag (Homo sapiens, UniProt Q92769).
T1 construct: FLAG (C); purchased BPS Bioscience 50052
The experiment in a line: Measurement of HDAC2 enzyme inhibitory activity (HTRF). It is filed as biochemical. The following applies: recombinant HDAC2, H3K9ac peptide, 3 hours room temperature; read-out: HDAC2 IC50. The procedure:
Test Example 1: Measurement of HDAC2 Enzyme Inhibitory Activity
The HDAC2 enzyme inhibitory activity was measured by the method described in the following test example.
To each well of a 384-well plate (Corning, 4514), DMSO solution of the test compound was dispensed at 50 nL/well from a final concentration of 99 μM to 8 points (n=2) in the 3-fold dilution series using Echo555 (Beckman Coulter). 2.5 μl of 0.005 mg/mL recombinant enzyme HDAC2 (HDAC2 Human recombinant C-terminal FLAG-tag, BPS Bioscience, 50052) was added to each well, 2.5 μl of 0.6 μM H3K9ac peptide (Lys(Ac)9-Histone H3 (1-21)-GGK(Biotin), AnaSpec, 64361) was added, mixed, and reacted in a wet box at room temperature for 3 hours. 50 mM Tris HCL pH8.0, 137 mM sodium chloride, 2.7 mM potassium chloride, 1 mM magnesium chloride, 0.01% Tween20, and 0.1% BSA which were diluted with ultrapure water were used as a reaction buffer at this time. After the reaction, 5 μL of 10 μM SAHA (suberoylanilide hydroxamic acid) as a reaction terminator and the 5 μL of a mixture of 2.5 ng of H3K9me0 antibody (ActiveMotif, 61399) labeled in-house with europium cryptate (Cisbio, 65EUSABA) and 125 nM streptavidin-XL665 (Cisbio, 610SAXLA) as an HTRF (time-resolved fluorescence) reagent were added to each well, mixed, and allowed to stand in a wet box at room temperature for reaction. A detection buffer used at this time was 50 mM Tris HCL pH 8.0, 0.8 M potassium fluoride, and 0.1% BSA which were diluted with ultrapure water. After reacting for 2 hours or more, HTRF was measured using a multi-plate reader such as SpectraMax Paradigm (MOLECULAR DEVICE) or RUBYstar (BMG LABTECH). Ratio (665 nm/615-620 nm×10000) was calculated from the fluorescence values of two wavelengths, 615-620 nm and 665 nm, which were excited at 320-340 nm, and the energy transition was obtained.
A general note: Time-resolved FRET reads energy transfer from a long-lived donor to a nearby acceptor.
On to `Cn1cc(-c2ccc(C(=O)Nc3cc(-c4ccon4)ccc3N)nc2)cn1` [Compound I-084], for which the IC50 is 310 nM.

Turning to `Nc1ccc(-c2cncs2)cc1NC(=O)c1ccc(C2CC2)cn1` [Compound I-101], the IC50 was 92 nM.

On to `CC(C)(C)c1cnc(C(=O)Nc2cc(-c3ccc(F)nc3)ccc2N)cn1` [Compound I-203], for which the IC50 came out at 240 nM.

Regarding `Nc1ccc(-c2ccc(F)nc2)cc1NC(=O)c1cc2c(cn1)OCCO2` [Compound I-097], the IC50 is 160 nM.

In the case of `Cn1cc(-c2ccc(N)c(NC(=O)c3cnc(OC4CCOCC4)cn3)c2)cn1` [Compound I-291], the IC50 was 310 nM.

Take `Nc1ccc(-c2cncs2)cc1NC(=O)c1ccc(Cl)cn1` [Compound I-071]: the IC50 came out at 160 nM.

As to `COc1cnc(C(=O)Nc2cc(-c3ccc(F)nc3)ccc2N)cn1` [Compound I-120], the IC50 is 240 nM.

For `CC(=O)Nc1ccc(C(=O)Nc2cc(-c3cnn(C)c3)ccc2N)nc1` [Compound I-265], the IC50 came out at 90 nM.

Regarding `COc1cnc(C(=O)Nc2cc(-c3ccc(F)nc3)ccc2N)nc1` [Compound I-259], the IC50 was 340 nM.

With `Nc1ccc(-c2ccc(F)nc2)cc1NC(=O)c1cnc(NCc2ccccn2)cn1` [Compound I-277], the IC50 stood at 40 nM.

`Cc1cnc(C(=O)Nc2cc(-c3cnn(C)c3)ccc2N)cn1` [Compound I-138]: the IC50 is 200 nM.

In the case of `Cn1cccc1-c1cc(C(=O)Nc2cc(-c3cncs3)ccc2N)no1` [Compound I-199], the IC50 came to 200 nM.

As for `Cn1cc(-c2ccc(C(=O)Nc3cc(-c4ccco4)ccc3N)nc2)nn1` [Compound I-002], the IC50 came out at 54 nM.

With `Cn1cc(-c2cnc(C(=O)Nc3cc(-c4cccs4)ccc3N)nc2)cn1` [Compound I-014], the IC50 is 200 nM.

As for `Cn1cc(-c2ccc(N)c(NC(=O)c3ccc(C(C)(C)C)cn3)c2)cn1` [Compound I-201], the IC50 came out at 260 nM.

With `Cn1cc(-c2ccc(C(=O)Nc3cc(-c4cnco4)ccc3N)nc2)nn1` [Compound I-011], the half-maximal inhibitory concentration (IC50) is 57 nM.

`COC(=O)c1ccc(C(=O)Nc2cc(-c3ccc(F)nc3)ccc2N)nc1` [Compound I-185]: the half-inhibitory concentration (IC50) was 140 nM.

Regarding `Nc1ccc(-c2ccc(F)nc2)cc1NC(=O)c1cccnn1` [Compound I-115], the IC50 was determined as 440 nM.

As to `Nc1ccc(-c2ccc(F)nc2)cc1NC(=O)c1ccc(CN2CCCCC2=O)cn1` [Compound I-108], the IC50 was determined as 84 nM.

Consider `CC(C)(O)C1CN(c2cnc(C(=O)Nc3cc(-c4ccc(F)nc4)ccc3N)cn2)C1` [Compound I-284], for which the IC50 came to 80 nM.

With `Nc1ccc(-c2cncs2)cc1NC(=O)c1noc2ccccc12` [Compound I-195], the IC50 came to 290 nM.

As to `Cn1cc(-c2ccc(N)c(NC(=O)c3cnc(C(C)(C)C)cn3)c2)cn1` [Compound I-204], the concentration for half-maximal inhibition (IC50) was found to be 340 nM.

For the molecule `CN(C)c1cnc(C(=O)Nc2nc(-c3ccccc3)ccc2N)cn1` [Compound I-213], the IC50 came out at 310 nM.

For the molecule `Cn1cc(-c2ccc(C(=O)Nc3cc(-c4cnn(C)c4)ccc3N)nc2)cn1` [Compound I-037], the IC50 is 180 nM.

As for `COCc1cnc(C(=O)Nc2cc(-c3ccc(F)nc3)ccc2N)cn1` [Compound I-218], the IC50 came out at 150 nM.

As to `Nc1ccc(-c2ccc(F)nc2)cc1NC(=O)c1cnc(N2Cc3cccnc3C2)cn1` [Compound I-279], the IC50 came to 50 nM.

Consider `CN(C)c1cnc(C(=O)Nc2nc(-n3cccc3)ccc2N)cn1` [Compound I-212], for which the IC50 worked out at 830 nM.

Turning to `Nc1ccc(-c2ccc(F)nc2)cc1NC(=O)c1cnc(NC2CCOCC2)cn1` [Compound I-286], the IC50 came to 70 nM.

For `Nc1ccc(-c2cncs2)cc1NC(=O)c1cc2c(cn1)OCCC2` [Compound I-067], the IC50 stood at 120 nM.

`Cn1cc(-c2ccc(C(=O)Nc3cc(-c4ccco4)ccc3N)nc2)cn1` [Compound I-005]: the IC50 was found to be 220 nM.

In the case of `Nc1ccc(-c2cncs2)cc1NC(=O)c1ccc2nccn2n1` [Compound I-065], the IC50 is 330 nM.

On to `C=Cc1ccc(C(=O)Nc2cc(-c3ccc(F)nc3)ccc2N)nc1` [Compound I-131], for which the IC50 was 180 nM.

On to `CC(C)c1ccc(C(=O)Nc2cc(-c3ccc(F)nc3)ccc2N)nc1` [Compound I-181], for which the IC50 turned out to be 140 nM.

`Cn1cc(-c2cnc(C(=O)Nc3cc(-n4cccc4)ccc3N)cn2)cn1` [Compound I-013]: the IC50 worked out at 100 nM.

For `CCc1cnc(C(=O)Nc2nc(-c3ccccc3)ccc2N)cn1` [Compound I-260], the IC50 stood at 470 nM.

Turning to `CN(C)c1cnc(C(=O)Nc2cc(-c3cncs3)ccc2N)cn1` [Compound I-205], the IC50 was 60 nM.

Turning to `CN(C)c1ccc(C(=O)Nc2cc(-c3ccc(F)nc3)ccc2N)nn1` [Compound I-263], the IC50 came to 120 nM.

For the molecule `Nc1ccc(-c2ccc(F)nc2)cc1NC(=O)c1ccc(N2CCC2)nn1` [Compound I-266], the IC50 was 140 nM.

As to `CC(=O)N(C)c1cnc(C(=O)Nc2cc(-c3ccc(F)nc3)ccc2N)cn1` [Compound I-248], the IC50 was found to be 220 nM.

Turning to `Cn1cc(-c2ccc(C(=O)Nc3nc(-c4cncs4)ccc3N)nc2)cn1` [Compound I-061], the concentration for half-maximal inhibition (IC50) stood at 210 nM.

On to `CN(Cc1ccccn1)c1cnc(C(=O)Nc2cc(-c3ccc(F)nc3)ccc2N)cn1` [Compound I-276], for which the IC50 is 40 nM.

For the molecule `CN(C)c1ccc(C(=O)Nc2cc(-c3cnn(C)c3)ccc2N)nn1` [Compound I-274], the IC50 turned out to be 240 nM.

In the case of `Cc1ccc(C(=O)Nc2cc(-c3ccc(F)nc3)ccc2N)nn1` [Compound I-256], the half-maximal inhibitory concentration (IC50) is 260 nM.

On to `Cn1cc(-c2ccc(N)c(NC(=O)c3cnc(N4CCC4)cn3)c2)cn1` [Compound I-238], for which the IC50 came out at 150 nM.

For `Nc1ccc(-c2ccc(F)nc2)cc1NC(=O)c1cnc2[nH]ccc2n1` [Compound I-086], the IC50 came out at 180 nM.

`Nc1ccc(-c2ccc(F)nc2)cc1NC(=O)c1cnc(N2CCOCC2)cn1` [Compound I-303]: the IC50 was determined as 70 nM.

Take `Nc1ccc(-c2cncs2)cc1NC(=O)c1ccc2c(n1)CCCC2` [Compound I-082]: the IC50 stood at 340 nM.

Consider `Cn1cc(-c2ccc(C(=O)Nc3cc(-c4cccs4)ccc3N)nn2)cn1` [Compound I-027], for which the IC50 worked out at 130 nM.

For the molecule `CCOc1ccc(C(=O)Nc2cc(-c3ccc(F)nc3)ccc2N)nn1` [Compound I-268], the IC50 was 130 nM.

For the molecule `CCNc1cnc(C(=O)Nc2cc(-c3ccc(F)nc3)ccc2N)cn1` [Compound I-285], the IC50 amounted to 40 nM.

As to `COc1cnc(C(=O)Nc2cc(-c3cncs3)ccc2N)cn1` [Compound I-099], the IC50 worked out at 72 nM.

With `Cn1cc(-c2ccc(N)c(NC(=O)c3cnc(OC(F)F)cn3)c2)cn1` [Compound I-146], the IC50 was 380 nM.

In the case of `Cn1cc(-c2ccc(C(=O)Nc3cc(-c4cncs4)ccc3N)nc2)nn1` [Compound I-047], the concentration for half-maximal inhibition (IC50) stood at 30 nM.

For `CN(C)c1cnc(C(=O)Nc2cc(-c3ccc(F)nc3)ccc2N)cn1` [Compound I-178], the IC50 stood at 46 nM.

Turning to `Cn1cc(-c2ccc(C(=O)Nc3cc(-n4cccc4)ccc3N)nc2)cn1` [Compound I-056], the IC50 is 120 nM.

On to `CC(C)Nc1cnc(C(=O)Nc2cc(-c3ccc(F)nc3)ccc2N)cn1` [Compound I-242], for which the IC50 is 40 nM.

Staying with this assay, now noted: recombinant HDAC2, H3K9ac peptide; read-out: IC50 (HDAC2).
In the case of `CCC(=O)Nc1ccc(C(=O)Nc2cc(-c3cnn(C)c3)ccc2N)nc1` [Compound I-307], the IC50 turned out to be 77 nM.
